In data set [1] the target is LSD1 (Homo sapiens (Human), UniProt O60341). Description: LSD1 inhibitory activity on an enzyme level, AlphaScreen method. It counts as biochemical. The settings on record: in vitro. The protocol:
This experiment was carried out to test the in vitro inhibitory activity of the compounds of the present disclosure against LSD1.
Experimental steps and a method: In this experiment, the in vitro inhibitory activity of the compounds of the present disclosure against LSD1 on an enzyme level was tested by using an AlphaScreen method. The experimental steps are described as follows: • a) preparation of a 1× buffer: • preparing a 1× buffer (improved trihydroxymethylaminomethane buffer); • b) continuous dilution of the compounds: • transferring the compounds of the present disclosure to a porous plate by using Echo at a final DMSO concentration of 1%; • c) preparation of an enzyme solution: • preparing an enzyme solution in the 1× buffer; • d) preparation of a substrate solution: • adding polypeptide to the 1× buffer to prepare a substrate solution; • e) transferring 5 μL of the enzyme solution or the 1× buffer to the porous plate; • f) conducting incubation at room temperature for 15 min; • g) adding 5 μL of the substrate solution to each well to induce a reaction; • h) conducting incubation at room temperature for 40 min; • i) preparing a 1× Alphalisa buffer; • j) preparation of a 1× Alphalisa buffer solution of receptors and donors: • adding 15 μL of a receptor and donor solution in dark light environment, and conducting incubation at room temperature for 60 min; • k) reading an endpoint in an EnSpire Alpha mode; and • l) data processing: • calculating an inhibitory value according to an equation 1:
Inh %=(Max−Signal)/(Max−Min)*100; and equation 1: • calculating an IC50 value by using XL-Fit according to an equation 2:
Y=Bottom+(Top-Bottom)/(1+(IC50/X)[…]), equation 2: • where Y indicates the inhibitory rate, and X indicates the concentration of a compound.
A general note: Alpha assays give light when donor and acceptor beads are brought close together.

Data set [2] addresses hERG (Homo sapiens (Human), UniProt Q12809). Briefly: hERG inhibitory activity, whole cell patch clamp in CHO hERG cells. The format is cell-based. The settings on record: for inhibition at 10 µM: human, CHO cells that express hERG, read-out: hERG inhibitory rate. The protocol:
This experiment was carried out to test the in vitro inhibitory activity of the compounds of the present disclosure against hERG.
In this method, whole cell recording was conducted by using a HEKA EPC 10 USB patch clamp amplifier (HEKA Elektronik, Germany). A cover slide with a large number of individual CHO hERG cells on the surface was removed and placed in a recording tank which was treated with continuous perfusion (about 1 ml/min) and loaded into an inverted microscope. Currents of hERG channels of the individual cells were recorded by using a standard whole cell recording method. A fixed voltage of −80 mV was applied to the cells by a voltage clamp. The hERG currents were activated by depolarization at +20 mV for 5 s, and then the currents were changed back at −50 mV for 5 s to remove a passivation effect and observe deactivated tail currents. Potassium ion tail currents observed in the hERG channels were stabilized by continuous perfusion in this step. Then, the cells were treated with a drug of the present disclosure until a stable state was reached. A stable state was considered as being reached when three consecutive superimposed currents were recorded. At this time point, the cells were treated again with an extracellular solvent until the current amplitude was changed back to near the level before administration. Cisapride was used in a control experiment to verify that the mass and response of hERG cells were in a normal state.
On the technique in general: hERG is a cardiac potassium channel; its block is linked to QT prolongation.

Data set [3] in a line: Pharmacokinetics after intravenous injection or oral administration in mice. The format is in vivo. The settings on record: mouse, plasma, CD-1 mice, 5 mg/kg; for AUC(0-t): read-out: Curve area AUC0-t; for half-life: read-out: Half-life T1/2 (converted). The protocol:
This experiment was carried out to test pharmacokinetic properties of the compounds of the present disclosure in mice.
A tested compound was dissolved in a mixture of 10% DMSO, 10% Solutol HS15 and 80% normal saline, and subjected to vortex treatment and ultrasonic treatment to obtain a corresponding concentration of a clarified solution. Then, the clarified solution was filtered with a microporous filter membrane for later use. A resulting tested compound solution was injected intravenously to CD-1 mice with a body weight of 21 to 27 g at a dose of 5 mg/kg. A tested compound was dissolved in a mixture of 10% DMSO, 10% Solutol HS15 and 80% normal saline, and subjected to vortex treatment and ultrasonic treatment to obtain a corresponding concentration of a clarified solution. Then, the clarified solution was filtered with a microporous filter membrane for later use. A resulting tested compound solution was administered orally to CD-1 mice with a body weight of 21 to 27 g at a dose of 5 mg/kg. Whole blood was collected at certain time points, and plasma was prepared. Drug concentration was analyzed by an LC-MS/MS method, and pharmacokinetic parameters were calculated by Phoenix WinNonlin software.

Like-named read-outs stand apart in the source and are kept apart here.

Sequence of hERG (Q12809 whole entry): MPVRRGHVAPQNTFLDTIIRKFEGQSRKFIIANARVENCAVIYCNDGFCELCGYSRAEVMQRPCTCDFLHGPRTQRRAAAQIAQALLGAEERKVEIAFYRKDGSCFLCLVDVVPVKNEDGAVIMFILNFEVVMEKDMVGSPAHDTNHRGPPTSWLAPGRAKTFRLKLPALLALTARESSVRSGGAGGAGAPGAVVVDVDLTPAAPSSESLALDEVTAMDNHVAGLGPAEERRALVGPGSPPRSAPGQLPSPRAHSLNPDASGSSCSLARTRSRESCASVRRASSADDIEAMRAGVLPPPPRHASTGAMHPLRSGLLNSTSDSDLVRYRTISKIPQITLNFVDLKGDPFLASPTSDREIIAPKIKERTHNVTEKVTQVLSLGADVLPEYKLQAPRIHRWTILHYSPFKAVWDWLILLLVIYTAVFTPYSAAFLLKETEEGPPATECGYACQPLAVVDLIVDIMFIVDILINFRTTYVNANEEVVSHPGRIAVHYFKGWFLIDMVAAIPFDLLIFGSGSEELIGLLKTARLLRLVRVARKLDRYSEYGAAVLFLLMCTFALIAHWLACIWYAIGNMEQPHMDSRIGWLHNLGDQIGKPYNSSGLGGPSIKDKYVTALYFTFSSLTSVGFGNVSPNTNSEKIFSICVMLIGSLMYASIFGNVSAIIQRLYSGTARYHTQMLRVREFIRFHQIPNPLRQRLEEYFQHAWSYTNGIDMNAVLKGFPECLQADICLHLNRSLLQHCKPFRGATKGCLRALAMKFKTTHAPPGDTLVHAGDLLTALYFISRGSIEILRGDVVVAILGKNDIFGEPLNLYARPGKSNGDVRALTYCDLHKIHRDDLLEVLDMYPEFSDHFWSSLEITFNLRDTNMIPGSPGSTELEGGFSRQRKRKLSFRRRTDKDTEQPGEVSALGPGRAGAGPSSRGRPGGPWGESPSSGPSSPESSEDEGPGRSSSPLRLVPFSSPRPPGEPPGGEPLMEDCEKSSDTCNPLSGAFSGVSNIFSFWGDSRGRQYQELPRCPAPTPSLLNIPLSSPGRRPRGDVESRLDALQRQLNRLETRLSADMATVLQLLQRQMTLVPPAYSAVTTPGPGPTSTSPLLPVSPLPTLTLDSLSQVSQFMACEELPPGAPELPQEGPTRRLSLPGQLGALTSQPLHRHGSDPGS

For orientation: IC50 means the point on the concentration scale where inhibition reaches its midpoint. High values mean weaker potency, low ones greater potency. For `CC(C)(O)Cn1nnc2cc(-c3c(-c4ccc(C#N)c(F)c4)nc4c(N5CCC[C@@H](N)C5)nccn34)c(F)cc21` [Compound 12, (R)-4-(8-(3-aminopiperidin-1-yl)-3-(6-fluoro-1-(2-hydroxy-2-methylpropyl)-1H-benzo[d][1,2,3]triazol-5-yl)imidazo[1,2-a]pyrazin-2-yl)-2-fluorobenzonitrile], the IC50 in data set [1] was 1.6 nM. Besides, the inhibition at 10 µM in data set [2] came to 27%.
Take `CC(C)(O)Cn1nnc2cc(-c3c(-c4ccc(C#N)c(F)c4)nc4c(N5CCC[C@@H](N)C5)nccn34)c(F)cc21` [Compound 18, (R)-4-(8-(3-aminopiperidin-1-yl)-3-(6-fluoro-1-(2-hydroxy-2-methylpropyl)-1H-benzo[d][1,2,3]triazol-5-yl)imidazo[1,2-a]pyrazin-2-yl)-2-fluorobenzonitrile]: in data set [2] (10 μM), the hERG inhibitory rate was 43.72%.
`CC(C)(O)Cn1nnc2cc(-c3c(-c4ccc(C#N)c(F)c4)nc4c(N5CCC[C@@H](N)C5)nccn34)ccc21` [Compound 20, (R)-4-(8-(3-aminopiperidin-1-yl)-3-(1-(2-hydroxy-2-methylpropyl)-1H-benzo[d][1,2,3]triazol-5-yl)imidazo[1,2-a]pyrazin-2-yl)-2-fluorobenzonitrile] came in with an IC50 in data set [1] of 2.6 nM. Moreover, the inhibition at 10 µM in data set [2] was determined as 26.7%.
As to `CC(C)(O)Cn1nnc2cc(-c3c(-c4ccc(C#N)c(F)c4)nc4c(N5[C@@H]6CC[C@H]5[C@@H](N)C6)nccn34)c(F)cc21` [Compound 27, 4-(8-((1S,2S,4R)-2-amino-7-azabicyclo[2.2.1]heptane-7-yl)-3-(6-fluoro-1-(2-hydroxy-2-methylpropyl)-1H-benzo[d][1,2,3]triazol-5-yl)imidazo[1,2-a]pyrazin-2-yl)-2-fluorobenzonitrile], in data set [1], it took 1 nM to reach half-maximal inhibition (IC50). Moreover, in data set [3] (intravenous injection, read-out: Apparent volume of distribution V), the Vd was determined as 5.04 L/kg. The clearance in data set [3] (intravenous injection, read-out: Clearance rate CL) stood at 7.25 mL/min/kg. The AUC(0-t) in data set [3] (intravenous injection) amounted to 11500 ng·h/mL; in data set [3] (oral administration), 6530 ng·h/mL. Besides, the half-life in data set [3] (intravenous injection) was 500 min; in data set [3] (oral administration), 352 min. Further, the Cmax in data set [3] (oral administration, read-out: Blood drug concentration Cmax) is 648 ng/mL.

The values above are taken from patent publication US20230399332A1, “IMIDAZO[1,2-a]PYRAZINE OR PYRAZOLO[1,5-a]PYRIMIDINE DERIVATIVE AND USE THEREOF” (TENCENT TECHNOLOGY (SHENZHEN) COMPANY LIMITED, priority 2022, published 2023).
